The text below walks through data of US10501458B2, “Substituted bicyclic fused ring compounds as indoleamine-2,3-dioxygenase inhibitors” (Merck Sharp & Dohme Corp., priority 2015, dated 2019).

One assay deals with TDO (Homo sapiens (Human), UniProt P48775). Kind of assay: A172 kynurenine cell-based assay. Particulars: A172 human glioblastoma cells, 500 μM L-tryptophan, 48 hours; for IC50: read-out: A172 Kynurenine cell based assay, pIC50 (converted). As for the experimental part: (§1) Exemplary compounds of the invention were prepared, and tested to determine their effect as TDO and/or IDO inhibitors. Two different assays were employed: 1. a cell-based assay for detecting the effect of test compounds on kynurenine production in two different cancer cell types. This assay utilised cancer cells which expressed either TDO or IDO and as such was used as a means of testing compound activity at these two enzymes in a cell-based context. 2. a TDO and IDO biochemical coupled assay which utilised recombinantly produced and purified TDO and IDO enzymes in combination with the enzyme formamidase. This coupled enzyme system allowed conversion of N-formylkynurenine produced by TDO or IDO activity to kynurenine which was then quantified by fluorescence following addition of Erhlich's Reagent The protocols for these are set out below.
(§2) Cell Based Assay for Detection of Kynurenine Produced by TDO and/or IDO
(§3) A172 (human glioblastoma) and SKOV3 (human ovarian adenocarcinoma) cells were seeded in a 96 well plate at 30,000 or 40,000 cells per well respectively in phenol red-free RPMI supplemented with 10% FCS, 2 mM L-glutamine and 500 μM L-tryptophan. IDO expression was induced in the SKOV3 cells by the addition of 500 ng/ml IFN-γ. Cells were incubated at 37° C. with or without the addition of test compound. After 48 hours, the cells were removed by centrifugation and Erhlich's reagent was added to the supernatant. The Erhlich's reagent was incubated for 5 minutes before the absorbance was read at 490 nm.

The target in assay [1] is T1, IDO (Homo sapiens (Human), UniProt P14902). The assay is described as follows: SKOV3 kynurenine cell-based assay (IDO induced by IFN-γ). Particulars: SKOV3 human ovarian adenocarcinoma cells, 500 ng/ml IFN-γ, 500 μM L-tryptophan, 48 hours; for IC50: read-out: SKOV3 Kynurenine cell based assay, pIC50 (converted). As for the experimental part: as §1, §2, §3
In assay [2] the target is T1, IDO. The assay is described as follows: hIDO biochemical coupled assay. The conditions noted are these: 45 μM L-tryptophan, 17 minutes at room temperature. How it is done:
as §1
TDO and IDO Biochemical Coupled Assay
Recombinant human IDO or TDO was incubated in 50 mM KPO4 (pH 7.0), 0.5 mM EGTA, 0.5 mM EDTA, 0.05% Triton™ X100, 20 mM ascorbate, 10 μM methylene blue, 500 U/ml catalase, 50 μg/ml KynB (kynurenine formamidase). TDO assays were carried out in the presence of 330 μM L-tryptophan, while IDO assays had the addition of 45 μM L-tryptophan. After incubation for 17 minutes at room temperature the reactions were stopped by the addition of Erhlich's reagent and incubated at room temperature for 5 minutes before the fluorescence was read (Ex 475, Em530).

TDO, sequence (P48775 whole entry): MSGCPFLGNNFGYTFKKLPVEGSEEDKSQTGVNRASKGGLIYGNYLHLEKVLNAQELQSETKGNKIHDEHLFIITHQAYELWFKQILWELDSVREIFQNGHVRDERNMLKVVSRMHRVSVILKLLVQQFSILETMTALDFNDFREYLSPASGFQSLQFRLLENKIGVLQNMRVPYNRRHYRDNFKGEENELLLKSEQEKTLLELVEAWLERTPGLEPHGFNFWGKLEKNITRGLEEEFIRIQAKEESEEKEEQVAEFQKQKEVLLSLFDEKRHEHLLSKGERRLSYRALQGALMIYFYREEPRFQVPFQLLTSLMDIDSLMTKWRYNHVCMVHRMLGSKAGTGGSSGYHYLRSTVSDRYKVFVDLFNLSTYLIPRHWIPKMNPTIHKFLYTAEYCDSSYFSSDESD
T1 sequence (P14902 whole entry): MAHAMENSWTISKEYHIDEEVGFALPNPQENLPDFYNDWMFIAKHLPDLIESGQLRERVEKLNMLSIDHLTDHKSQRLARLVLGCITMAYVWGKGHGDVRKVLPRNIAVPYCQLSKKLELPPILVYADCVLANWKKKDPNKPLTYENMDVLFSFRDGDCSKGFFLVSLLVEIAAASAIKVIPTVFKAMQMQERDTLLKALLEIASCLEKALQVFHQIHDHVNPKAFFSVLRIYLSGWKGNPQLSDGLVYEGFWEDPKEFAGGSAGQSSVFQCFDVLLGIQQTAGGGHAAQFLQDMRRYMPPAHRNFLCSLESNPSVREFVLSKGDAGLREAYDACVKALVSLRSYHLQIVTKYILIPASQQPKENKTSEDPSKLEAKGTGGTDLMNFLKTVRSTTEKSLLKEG

Take `CS(=O)(=O)N1CCN(c2cc(C(F)(F)F)cn3cncc23)CC1` [Compound 1003]: at TDO, the “A172 Kynurenine cell based assay, pIC50” value was “++ (++ = pIC50 4.50-5.49)”. Moreover, the “SKOV3 Kynurenine cell based assay, pIC50” value at IDO [1] is “+ (+ = pIC50 4.00-4.49)”. For the same compound, the “hIDO biochemical assay, pIC50” value at IDO [2] is listed as “+/− (+/− = pIC50 <4.00)”.

With `CS(=O)(=O)N1CCC(c2cc(C(F)(F)F)cn3cncc23)CC1` [Compound 1005, 8-(1-(methylsulfonyl)piperidin-4-yl)-6-(trifluoromethyl)imidazo[1,5-a]pyridine], the IC50 on TDO was 3.24 to 31.6 µM; at IDO [1] it was 32.4 to 100 µM; at IDO [2] (read-out: hIDO biochemical assay, pIC50 (converted)), 3.24 to 31.6 µM.

As for `CS(=O)(=O)c1ccc(-c2cc(Cl)cc3cncn23)cc1` [Compound 1012], the “A172 Kynurenine cell based assay, pIC50” value at TDO is reported as “++ (++ = pIC50 4.50-5.49)”. The “SKOV3 Kynurenine cell based assay, pIC50” value at IDO [1] was “+ (+ = pIC50 4.00-4.49)”. In addition, the “hIDO biochemical assay, pIC50” value on IDO [2] is given as “++ (++ = pIC50 4.50-5.49)”.

As for `CNC(=O)c1ccc(C2CCN(c3cc(C(F)(F)F)cc4cncn34)CC2)cc1` [Compound 1025], the “A172 Kynurenine cell based assay, pIC50” value at TDO is recorded as “++ (++ = pIC50 4.50-5.49)”. In addition, the “SKOV3 Kynurenine cell based assay, pIC50” value at IDO [1] was “+++ (+++ = pIC50 ≥5.50)”.

For `CS(=O)(=O)Nc1ccc(C2CCN(c3cc(C(F)(F)F)cc4cncn34)CC2)cc1` [Compound 1023], the “A172 Kynurenine cell based assay, pIC50” value at TDO was “++ (++ = pIC50 4.50-5.49)”. Moreover, the “SKOV3 Kynurenine cell based assay, pIC50” value on IDO [1] is “+++ (+++ = pIC50 ≥5.50)”.

Consider `CC1(C)CN(c2cc(Cl)cn3cncc23)CCN1S(C)(=O)=O` [Compound 1016], for which the “A172 Kynurenine cell based assay, pIC50” value on TDO is “+++ (+++ = pIC50 ≥5.50)”. Further, the “SKOV3 Kynurenine cell based assay, pIC50” value at IDO [1] is given as “++ (++ = pIC50 4.50-5.49)”.

As for `CC1(C)CN(c2cc(C(F)(F)F)cc3cncn23)CCN1S(C)(=O)=O` [Compound 1026], the “A172 Kynurenine cell based assay, pIC50” value on TDO was “+++ (+++ = pIC50 ≥5.50)”. Also, the “SKOV3 Kynurenine cell based assay, pIC50” value at IDO [1] is “+++ (+++ = pIC50 ≥5.50)”.

On to `CC(=O)N1CCN(c2cc(C(F)(F)F)cn3cncc23)CC1(C)C` [Compound 1029], for which the “A172 Kynurenine cell based assay, pIC50” value on TDO is recorded as “+++ (+++ = pIC50 ≥5.50)”. Further, the “SKOV3 Kynurenine cell based assay, pIC50” value on IDO [1] is listed as “++ (++ = pIC50 4.50-5.49)”.

On to `CS(=O)(=O)N1CCC(Nc2cc(C(F)(F)F)cn3cncc23)CC1` [Compound 1009], for which the “A172 Kynurenine cell based assay, pIC50” value on TDO is reported as “+/− (+/− = pIC50 <4.00)”. In addition, the “SKOV3 Kynurenine cell based assay, pIC50” value on IDO [1] is recorded as “++ (++ = pIC50 4.50-5.49)”. Also, the “hIDO biochemical assay, pIC50” value on IDO [2] was “+/− (+/− = pIC50 <4.00)”.

Consider `CC(=O)N1CCN(c2cc(Cl)cn3cncc23)CC1(C)C` [Compound 1033], for which, on TDO, the “A172 Kynurenine cell based assay, pIC50” value is “+++ (+++ = pIC50 ≥5.50)”. In addition, the “SKOV3 Kynurenine cell based assay, pIC50” value on IDO [1] was “++ (++ = pIC50 4.50-5.49)”.

`CS(=O)(=O)N1CCC(Nc2cc(Cl)cc3cncn23)CC1` [Compound 1030]: the “A172 Kynurenine cell based assay, pIC50” value on TDO was “++ (++ = pIC50 4.50-5.49)”. On IDO [1], the “SKOV3 Kynurenine cell based assay, pIC50” value was “++ (++ = pIC50 4.50-5.49)”.

Regarding `CC1(C)CN(c2cc(Cl)cc3cncn23)CCN1S(C)(=O)=O` [Compound 1032], the “A172 Kynurenine cell based assay, pIC50” value on TDO is recorded as “++ (++ = pIC50 4.50-5.49)”. Moreover, the “SKOV3 Kynurenine cell based assay, pIC50” value on IDO [1] is recorded as “+++ (+++ = pIC50 ≥5.50)”.

Take `CC1(C)CN(c2cc(Br)cn3cncc23)CCN1S(C)(=O)=O` [Compound 1022]: the “A172 Kynurenine cell based assay, pIC50” value on TDO is given as “+++ (+++ = pIC50 ≥5.50)”. Also, at IDO [1], the “SKOV3 Kynurenine cell based assay, pIC50” value is on record as “+++ (+++ = pIC50 ≥5.50)”.

As for `CC(=O)Nc1ccc(C2CCN(c3cc(C(F)(F)F)cc4cncn34)CC2)cc1` [Compound 1024], the “A172 Kynurenine cell based assay, pIC50” value on TDO is reported as “++ (++ = pIC50 4.50-5.49)”. For the same compound, at IDO [1], the “SKOV3 Kynurenine cell based assay, pIC50” value is given as “+++ (+++ = pIC50 ≥5.50)”.

Turning to `CC(=O)N1CCN(c2cc(Cl)cc3cncn23)CC1(C)C` [Compound 1031], at TDO, the “A172 Kynurenine cell based assay, pIC50” value is reported as “+++ (+++ = pIC50 ≥5.50)”. The “SKOV3 Kynurenine cell based assay, pIC50” value on IDO [1] is on record as “+++ (+++ = pIC50 ≥5.50)”.

On to `CC1(C)CN(c2cc(C(F)(F)F)cn3cncc23)CCN1S(C)(=O)=O` [Compound 1014, 8-(3,3-dimethyl-4-(methylsulfonyl)piperazin-1-yl)-6-(trifluoromethyl)imidazo[1,5-a]pyridine], for which the IC50 at TDO and at IDO [1] was at most 3.16 µM throughout.
